The test system of data set [1] is HeLa. The data set can be described thus: Induction of mitochondrial membrane potential alteration in human HeLa cells assessed as late apoptotic cells at 100 nM measured after 48 hrs by JC1 staining-based flow cytometry analysis (reference value: 0.009%). Format: functional. Background: Flow cytometry measures light scatter and fluorescence of single cells or particles in a stream.

Data set [2] has as its system HeLa. The data set can be described thus: Induction of cell cycle arrest in human HeLa cells assessed as reduction of cells at S phase at 100 to 2000 nM incubated for 24 to 48 hrs by […] flow cytometry. Format: functional. The conditions noted are these: dose 100-2000 nM, time 24-48 hrs.
Data set [3] concerns HeLa. The experiment in a line: Induction of apoptosis in human HeLa cells assessed as early apoptotic cells at 100 nM incubated for 48 hrs by annexin V FITC and propidium iodide staining based flow cytometry analysis (reference value: 6.01%). Format: functional.
Data set [4] concerns HeLa. The experiment in a line: Inhibition of colony formation in human HeLa cells assessed as reduction in colony formation at 250 nM incubated for 24 hrs followed by culturing in fresh compound-free medium for 10 days by crystal violet staining based assay. Format: functional, cell-based.
The test system of data set [5] is HeLa. The data set can be described thus: Induction of mitochondrial membrane potential alteration in human HeLa cells assessed as viable cells at 100 nM measured after 48 hrs by JC1 staining-based flow cytometry analysis (reference value: 90.9 %). Format: functional. The conditions noted are these: read-out: Activity.
The subject of data set [6] is HeLa. The data set can be described thus: Induction of mitochondrial membrane potential alteration in human HeLa cells assessed as early apoptotic cells at 100 nM measured after 48 hrs by JC1 staining-based flow cytometry analysis (reference value: 9.07%). Format: functional.
Data set [7] relates to HeLa. The data set can be described thus: Induction of apoptosis in human HeLa cells assessed as early apoptotic cells at 1 uM incubated for 72 hrs by annexin V FITC and propidium iodide staining based flow cytometry analysis (reference value: 2.36%). Format: functional.
The test system of data set [8] is HeLa. The experiment in a line: Induction of apoptosis in human HeLa cells assessed as necrotic cells at 1 uM incubated for 48 hrs by annexin V FITC and propidium iodide staining based flow cytometry analysis (reference value: 1.85 %). Format: functional.
In data set [9] the test system is HeLa. The data set can be described thus: Induction of apoptosis in human HeLa cells assessed as viable cells at 500 nM incubated for 24 hrs by annexin V FITC and propidium iodide staining based flow cytometry analysis (reference value: 85.7%). Format: functional. As to conditions: read-out: Activity.
For data set [10], the system named is HeLa. The data set can be described thus: Induction of apoptosis in human HeLa cells assessed as late apoptotic cells at 100 nM incubated for 24 hrs by annexin V FITC and propidium iodide staining based flow cytometry analysis (reference value: 0.05%). Format: functional.
Data set [11] deals with HeLa. The experiment in a line: Induction of apoptosis in human HeLa cells assessed as early apoptotic cells at 100 nM incubated for 24 hrs by annexin V FITC and propidium iodide staining based flow cytometry analysis (reference value: 0.12%). Format: functional.
Data set [12] deals with HUVEC. The data set can be described thus: Antivascular activity against human HUVEC cells assessed as inhibition of tube formation at 500 nM incubated for 3 hrs by matrigel matrix based microscopic analysis. Format: functional, cell-based.
For data set [13], the system named is HeLa. The data set can be described thus: Induction of apoptosis in human HeLa cells assessed as late apoptotic cells at 1 uM incubated for 24 hrs by annexin V FITC and propidium iodide staining based flow cytometry analysis (reference value: 0.05%). Format: functional.
Data set [14] concerns HeLa. The experiment in a line: Induction of apoptosis in human HeLa cells assessed as necrotic cells at 750 nM incubated for 24 hrs by annexin V FITC and propidium iodide staining based flow cytometry analysis (reference value: 1.14 %). Format: functional.
The test system of data set [15] is HeLa. The data set can be described thus: Induction of apoptosis in human HeLa cells assessed as necrotic cells at 500 nM incubated for 48 hrs by annexin V FITC and propidium iodide staining based flow cytometry analysis (reference value: 1.85 %). Format: functional.
In data set [16] the test system is HeLa. The experiment in a line: Antiproliferative activity against human HeLa cells assessed as reduction in cell viability incubated for 48 hrs by MTS assay. Format: functional, cell-based. A general note: Tetrazolium assays rely on reduction of a dye to a coloured formazan, in cell work by metabolically active cells.
Data set [17] can be described thus: Metabolic stability in rat liver microsomes incubated for 5 mins in absence of NADPH by HPLC analysis. Format: ADME, Microsome.
Data set [18] is described as follows: Antiproliferative activity against human A549/PTX cells assessed as reduction in cell viability measured for 48 hrs by MTS assay. Format: functional, cell-based.
Data set [19] has as its system HeLa. The data set can be described thus: Inhibition of colony formation in human HeLa cells assessed as reduction in colony formation at 1 to 250 nM incubated for 48 hrs followed by culturing in fresh compound-free medium for 10 days by crystal violet staining based assay. Format: functional, cell-based. The conditions noted are these: dose 1-250 nM, DDE = dose-dependent effect.

The subject of data set [20] is HeLa. The data set can be described thus: Induction of mitochondrial membrane potential alteration in human HeLa cells assessed as viable cells at 1 uM measured after 48 hrs by JC1 staining-based flow cytometry analysis (reference value: 90.9%). Format: functional. As to conditions: read-out: Activity.
For data set [21], the system named is HeLa. The experiment in a line: Induction of apoptosis in human HeLa cells assessed as viable cells at 750 nM incubated for 48 hrs by annexin V FITC and propidium iodide staining based flow cytometry analysis (reference value: 85.5%). As to conditions: read-out: Activity. Format: functional.

Active and inactive are the calls of the source. No cut-off for these calls is given here.

Take `COc1cc(C(=O)c2nc(N3CCCC3)nc3ccsc23)cc(OC)c1OC`: the Activity is given as 0.02% in data set [1]; 2.8% in data set [3]; 7.59% in data set [6]; 5.47% in [7]; 46.3% in [8]; 5.04% in data set [10]. The Activity in [11] is 2.98%; in [13], 0.13%; in [14], 3.09%; in data set [15], 8.84%. The result in data set [2] and in [12] was Active. Further, in data set [4], the inhibition entry was “Active”. Besides, the viability at 0.1 µM in data set [5] was 92.4%. For the same molecule, in data set [9], the viability at 0.5 µM worked out at 80.1%. Besides, the IC50 (in general, the concentration needed to halve the response being measured) was 3 nM in data set [16] and 24.4 nM in data set [18]. In addition, the Stability result in data set [17] is reported as “Stable”. For the same molecule, the inhibition entry in data set [19] was “Dde”. Further, the viability at 1 µM in data set [20] was 44.6%. Further, in data set [21], the viability at 0.75 µM was found to be 36.7%.

These data come from ChEMBL document CHEMBL5126582, “Discovery of (2-(pyrrolidin-1-yl)thieno[3,2-d]pyrimidin-4-yl)(3,4,5-trimethoxyphenyl)methanone as a novel potent tubulin depolymerizing and vascular disrupting agent” (Eur J Med Chem, 2022).
